# Measurements: patent publication US10420341B2, “Herbicidal phenylpyrimidines” (BASF SE, priority 2015, dated 2019)
# Columns and labels:
# [1] = system: ECHCG; experiment: greenhouse pre-emergence herbicidal test; format: in vivo, Echinocloa crus-galli; details: pre-emergence method, scale from 0 to 100
# Description: (§1) The seeds of the test plants were sown separately for each species. For the pre-emergence treatment, the active ingredients, which had been suspended or emulsified in water, were applied directly after sowing by means of finely distributing nozzles. The containers were irrigated gently to promote germination and growth and subsequently covered with transparent plastic hoods until the plants had rooted. This cover caused uniform germination of the test plants, unless this had been impaired by the active ingredients. Depending on the species, the plants were kept at 10-25° C. or 20-35° C., respectively. The test period extended over 2 to 4 weeks. During this time, the plants were tended, and their response to the individual treatments was evaluated. Evaluation was carried out using a scale from 0 to 100. 100 means no emergence of the plants, or complete destruction of at least the aerial moieties, and 0 means no damage, or normal course of growth. […] The plants used in the greenhouse experiments were of the following species: [table]
# [2] = system: ALOMY; experiment: greenhouse post-emergence herbicidal test; format: in vivo, Alopercurus myosuroides; details: post-emergence method, scale from 0 to 100
# Description: (§2) The seeds of the test plants were sown separately for each species. For the post-emergence treatment, the test plants were first grown to a height of 3 to 15 cm, depending on the plant habit, and only then treated with the active ingredients which had been suspended or emulsified in water. For this purpose, the test plants were either sown directly and grown in the same containers, or they were first grown separately as seedlings and transplanted into the test containers a few days prior to treatment. Depending on the species, the plants were kept at 10-25° C. or 20-35° C., respectively. The test period extended over 2 to 4 weeks. During this time, the plants were tended, and their response to the individual treatments was evaluated. Evaluation was carried out using a scale from 0 to 100. 100 means no emergence of the plants, or complete destruction of at least the aerial moieties, and 0 means no damage, or normal course of growth. […] The plants used in the greenhouse experiments were of the following species: [table]
# [3] = system: APESV; experiment: greenhouse pre-emergence herbicidal test; format: in vivo, Apera spica-venti; details: pre-emergence method, scale from 0 to 100
# Description: as §1
# [4] = system: AVEFA; experiment: greenhouse post-emergence herbicidal test; format: in vivo, Avena fatua; details: post-emergence method, scale from 0 to 100
# Description: as §2
# [5] = system: ECHCG; experiment: greenhouse post-emergence herbicidal test; format: in vivo, Echinocloa crus-galli; details: post-emergence method, scale from 0 to 100
# Description: as §2
structure (smiles),measurement,setting,value
COC(=O)c1nc(C2CC2)ncc1-c1cc(Br)ccc1F [example 191],herbicidal activity against ECHCG,[1]; application rate 1000 g/ha,very good (a very good herbicidal activity is given at values of at least 85)
same,herbicidal activity against ALOMY,[2]; application rate 1000 g/ha,good (A good herbicidal activity is given at values of at least 70)
same,herbicidal activity against APESV,[3]; application rate 1000 g/ha,very good (a very good herbicidal activity is given at values of at least 85)
same,herbicidal activity against AVEFA,[4]; application rate 1000 g/ha,good (A good herbicidal activity is given at values of at least 70)
same,herbicidal activity against ECHCG,[5]; application rate 1000 g/ha,very good (a very good herbicidal activity is given at values of at least 85)
O=C(O)c1nc(C(F)(F)F)ncc1-c1ccccc1Cl [example 315],herbicidal activity against ECHCG,[1]; application rate 1000 g/ha,very good (a very good herbicidal activity is given at values of at least 85)
same,herbicidal activity against ALOMY,[2]; application rate 1000 g/ha,good (A good herbicidal activity is given at values of at least 70)
same,herbicidal activity against APESV,[3]; application rate 1000 g/ha,good (A good herbicidal activity is given at values of at least 70)
same,herbicidal activity against AVEFA,[4]; application rate 1000 g/ha,good (A good herbicidal activity is given at values of at least 70)
same,herbicidal activity against ECHCG,[5]; application rate 1000 g/ha,good (A good herbicidal activity is given at values of at least 70)
O=C(O)c1nc(C2CC2)ncc1-c1ccccc1Cl [example 141],herbicidal activity against ECHCG,[1]; application rate 500 g/ha,very good (a very good herbicidal activity is given at values of at least 85)
same,herbicidal activity against ALOMY,[2]; application rate 500 g/ha,very good (a very good herbicidal activity is given at values of at least 85)
same,herbicidal activity against APESV,[3]; application rate 500 g/ha,very good (a very good herbicidal activity is given at values of at least 85)
same,herbicidal activity against AVEFA,[4]; application rate 500 g/ha,very good (a very good herbicidal activity is given at values of at least 85)
O=C(OCc1ccccc1)c1nc(C2CC2)ncc1-c1ccccc1Cl [example 254],herbicidal activity against ECHCG,[1]; application rate 1000 g/ha,very good (a very good herbicidal activity is given at values of at least 85)
same,herbicidal activity against ALOMY,[2]; application rate 1000 g/ha,very good (a very good herbicidal activity is given at values of at least 85)
same,herbicidal activity against APESV,[3]; application rate 1000 g/ha,very good (a very good herbicidal activity is given at values of at least 85)
same,herbicidal activity against AVEFA,[4]; application rate 1000 g/ha,very good (a very good herbicidal activity is given at values of at least 85)
same,herbicidal activity against ECHCG,[5]; application rate 1000 g/ha,very good (a very good herbicidal activity is given at values of at least 85)
O=C(O)c1nc(C2CC2)ncc1-c1ccc(F)cc1F [example 133],herbicidal activity against ECHCG,[1]; application rate 500 g/ha,very good (a very good herbicidal activity is given at values of at least 85)
same,herbicidal activity against ALOMY,[2]; application rate 500 g/ha,very good (a very good herbicidal activity is given at values of at least 85)
same,herbicidal activity against APESV,[3]; application rate 500 g/ha,very good (a very good herbicidal activity is given at values of at least 85)
same,herbicidal activity against AVEFA,[4]; application rate 500 g/ha,very good (a very good herbicidal activity is given at values of at least 85)
O=C(O)c1nc(C2CC2)ncc1-c1c(F)cc(F)cc1F [example 134],herbicidal activity against ECHCG,[1]; application rate 500 g/ha,very good (a very good herbicidal activity is given at values of at least 85)
same,herbicidal activity against ALOMY,[2]; application rate 500 g/ha,very good (a very good herbicidal activity is given at values of at least 85)
same,herbicidal activity against APESV,[3]; application rate 500 g/ha,very good (a very good herbicidal activity is given at values of at least 85)
same,herbicidal activity against AVEFA,[4]; application rate 500 g/ha,very good (a very good herbicidal activity is given at values of at least 85)
COC(=O)c1nc(C2CC2)ncc1-c1c(Br)ccc(F)c1F [example 197],herbicidal activity against ECHCG,[1]; application rate 1000 g/ha,very good (a very good herbicidal activity is given at values of at least 85)
same,herbicidal activity against ALOMY,[2]; application rate 1000 g/ha,very good (a very good herbicidal activity is given at values of at least 85)
same,herbicidal activity against APESV,[3]; application rate 1000 g/ha,very good (a very good herbicidal activity is given at values of at least 85)
same,herbicidal activity against AVEFA,[4]; application rate 1000 g/ha,very good (a very good herbicidal activity is given at values of at least 85)
O=C(Oc1ccccc1)c1nc(C2CC2)ncc1-c1ccccc1Cl [example 255],herbicidal activity against ECHCG,[1]; application rate 1000 g/ha,very good (a very good herbicidal activity is given at values of at least 85)
same,herbicidal activity against ALOMY,[2]; application rate 1000 g/ha,very good (a very good herbicidal activity is given at values of at least 85)
same,herbicidal activity against APESV,[3]; application rate 1000 g/ha,very good (a very good herbicidal activity is given at values of at least 85)
same,herbicidal activity against AVEFA,[4]; application rate 1000 g/ha,very good (a very good herbicidal activity is given at values of at least 85)
same,herbicidal activity against ECHCG,[5]; application rate 1000 g/ha,very good (a very good herbicidal activity is given at values of at least 85)
C[Si](C)(C)CCOC(=O)c1nc(C2CC2)ncc1-c1ccccc1Cl [example 258],herbicidal activity against ECHCG,[1]; application rate 1000 g/ha,very good (a very good herbicidal activity is given at values of at least 85)
same,herbicidal activity against ALOMY,[2]; application rate 1000 g/ha,very good (a very good herbicidal activity is given at values of at least 85)
same,herbicidal activity against AVEFA,[4]; application rate 1000 g/ha,very good (a very good herbicidal activity is given at values of at least 85)
same,herbicidal activity against ECHCG,[5]; application rate 1000 g/ha,very good (a very good herbicidal activity is given at values of at least 85)
COc1cccc(Cl)c1-c1cnc(C2CC2)nc1C(=O)O [example 178],herbicidal activity against ECHCG,[1]; application rate 500 g/ha,very good (a very good herbicidal activity is given at values of at least 85)
same,herbicidal activity against ALOMY,[2]; application rate 500 g/ha,good (A good herbicidal activity is given at values of at least 70)
same,herbicidal activity against APESV,[3]; application rate 500 g/ha,very good (a very good herbicidal activity is given at values of at least 85)
same,herbicidal activity against AVEFA,[4]; application rate 500 g/ha,good (A good herbicidal activity is given at values of at least 70)
O=C(O)c1nc(C2CC2)ncc1-c1c(Cl)cccc1C(F)(F)F [example 304],herbicidal activity against ALOMY,[2]; application rate 1000 g/ha,very good (a very good herbicidal activity is given at values of at least 85)
same,herbicidal activity against APESV,[3]; application rate 1000 g/ha,very good (a very good herbicidal activity is given at values of at least 85)
same,herbicidal activity against AVEFA,[4]; application rate 1000 g/ha,very good (a very good herbicidal activity is given at values of at least 85)
same,herbicidal activity against ECHCG,[5]; application rate 1000 g/ha,very good (a very good herbicidal activity is given at values of at least 85)
COC(=O)c1nc(C2CC2)ncc1-c1c(F)cc(F)cc1F [example 193],herbicidal activity against ECHCG,[1]; application rate 500 g/ha,very good (a very good herbicidal activity is given at values of at least 85)
same,herbicidal activity against ALOMY,[2]; application rate 500 g/ha,very good (a very good herbicidal activity is given at values of at least 85)
same,herbicidal activity against APESV,[3]; application rate 500 g/ha,very good (a very good herbicidal activity is given at values of at least 85)
same,herbicidal activity against AVEFA,[4]; application rate 500 g/ha,very good (a very good herbicidal activity is given at values of at least 85)
COC(=O)c1nc(C2CC2)ncc1-c1cc(F)c(F)cc1Br [example 215],herbicidal activity against ECHCG,[1]; application rate 500 g/ha,very good (a very good herbicidal activity is given at values of at least 85)
same,herbicidal activity against ALOMY,[2]; application rate 500 g/ha,very good (a very good herbicidal activity is given at values of at least 85)
same,herbicidal activity against APESV,[3]; application rate 500 g/ha,very good (a very good herbicidal activity is given at values of at least 85)
same,herbicidal activity against AVEFA,[4]; application rate 500 g/ha,very good (a very good herbicidal activity is given at values of at least 85)
COc1ccc(OC(=O)c2nc(C3CC3)ncc2-c2ccccc2Cl)cc1 [example 259],herbicidal activity against ECHCG,[1]; application rate 500 g/ha,very good (a very good herbicidal activity is given at values of at least 85)
same,herbicidal activity against ALOMY,[2]; application rate 500 g/ha,very good (a very good herbicidal activity is given at values of at least 85)
same,herbicidal activity against APESV,[3]; application rate 500 g/ha,very good (a very good herbicidal activity is given at values of at least 85)
same,herbicidal activity against AVEFA,[4]; application rate 500 g/ha,very good (a very good herbicidal activity is given at values of at least 85)
same,herbicidal activity against ECHCG,[5]; application rate 500 g/ha,good (A good herbicidal activity is given at values of at least 70)
COC(=O)c1nc(C2CC2)ncc1-c1c(F)cc(F)cc1Br [example 214],herbicidal activity against ECHCG,[1]; application rate 1000 g/ha,very good (a very good herbicidal activity is given at values of at least 85)
same,herbicidal activity against ALOMY,[2]; application rate 1000 g/ha,very good (a very good herbicidal activity is given at values of at least 85)
same,herbicidal activity against APESV,[3]; application rate 1000 g/ha,very good (a very good herbicidal activity is given at values of at least 85)
same,herbicidal activity against AVEFA,[4]; application rate 1000 g/ha,very good (a very good herbicidal activity is given at values of at least 85)
O=C(NO)c1nc(C2CC2)ncc1-c1ccccc1Cl [example 290],herbicidal activity against ECHCG,[1]; application rate 500 g/ha,very good (a very good herbicidal activity is given at values of at least 85)
same,herbicidal activity against ALOMY,[2]; application rate 500 g/ha,very good (a very good herbicidal activity is given at values of at least 85)
same,herbicidal activity against APESV,[3]; application rate 500 g/ha,very good (a very good herbicidal activity is given at values of at least 85)
same,herbicidal activity against AVEFA,[4]; application rate 500 g/ha,very good (a very good herbicidal activity is given at values of at least 85)
